Our source for the TGI and GI50 values is PubChem BioAssay (NCI).

Among the test systems are BT-549 breast; MCF7 breast; MDA-MB-231 breast; MDA-MB-435; NCI/ADR-RES ovarian; PC-3 prostate; T-47D breast.
What all share (assay): NCI-60 cell line screen, 48 h

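Method: 48-hour compound exposure of cells in 96-well plates, five concentrations, linear interpolation of endpoints. GI50: concentration for 50% inhibition of growth. TGI: total growth inhibition.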

Take `OCCCNCc1ccccn1`: the TGI in the assay with BT-549 breast, in the assay with MCF7 breast, with MDA-MB-231 breast, with MDA-MB-435, in the assay with NCI/ADR-RES ovarian and with PC-3 prostate was more than 100 µM each time. Further, the TGI with T-47D breast is more than 100 µM.

Turning to `CCOC(=O)/C=C/c1ccc(C(=O)OCC)[nH]1`, the GI50 was 6.76 µM in the assay on BT-549 breast; 3.06 µM with MCF7 breast; 13.7 µM in the assay on MDA-MB-231 breast; 393 nM in the assay on MDA-MB-435; 3.3 µM in the assay on NCI/ADR-RES ovarian; 4.7 µM in the assay with PC-3 prostate. Besides, the GI50 with T-47D breast is 6.32 µM. Also, the TGI in the assay with BT-549 breast is more than 100 µM; in the assay with MCF7 breast, more than 100 µM; with MDA-MB-231 breast, more than 100 µM; with MDA-MB-435 it was 2.29 µM; with NCI/ADR-RES ovarian, more than 100 µM; in the assay on PC-3 prostate, more than 100 µM. Besides, the TGI with T-47D breast was more than 100 µM.

`O=C(N/N=C/c1ccc(F)cc1)c1[nH]c2ccc(I)cc2c1-c1ccccc1`: the GI50 with BT-549 breast was 2.15 µM; in the assay with MCF7 breast, 0.339 µM; with MDA-MB-231 breast, 1.34 µM; in the assay on MDA-MB-435, 162 nM; in the assay on NCI/ADR-RES ovarian, 0.274 µM; in the assay with PC-3 prostate it was 0.541 µM. The TGI is 22.9 µM in the assay with BT-549 breast; 18.6 µM in the assay with MCF7 breast; 6.82 µM in the assay with MDA-MB-231 breast; 0.348 µM in the assay on MDA-MB-435; 0.769 µM with NCI/ADR-RES ovarian; more than 86.4 µM in the assay on PC-3 prostate.

Turning to `CCN(CC)C(=S)SSC1CCCCC1`, the GI50 was 19 µM in the assay on BT-549 breast; 14.4 µM in the assay on MCF7 breast; 17.3 µM with MDA-MB-231 breast; 15000 nM in the assay on MDA-MB-435; 21.3 µM with NCI/ADR-RES ovarian; 17.8 µM with PC-3 prostate. The GI50 in the assay with T-47D breast was 22.2 µM. The TGI in the assay on BT-549 breast turned out to be 46.5 µM; with MCF7 breast, 30.4 µM; with MDA-MB-231 breast it was 37.1 µM; in the assay on MDA-MB-435, 33.1 µM; in the assay with NCI/ADR-RES ovarian, 47 µM; in the assay on PC-3 prostate, 42.6 µM. In the assay with T-47D breast, the TGI turned out to be 66.4 µM.

Take `O=C(/C=C/c1ccc([N+](=O)[O-])o1)NNC(=O)c1cc2ccccc2cc1O`: the GI50 in the assay with BT-549 breast is 1.49 µM; in the assay on MCF7 breast it was 0.824 µM; in the assay with MDA-MB-231 breast it was 2.43 µM; with MDA-MB-435, 644 nM; in the assay with NCI/ADR-RES ovarian it was 1.48 µM; with PC-3 prostate, 3.36 µM. Besides, the GI50 with T-47D breast was 1.51 µM. For the same molecule, the TGI in the assay on BT-549 breast was 5.74 µM; in the assay on MCF7 breast, more than 100 µM; in the assay with MDA-MB-231 breast, more than 100 µM; in the assay with NCI/ADR-RES ovarian it was 10.6 µM; in the assay on PC-3 prostate, more than 100 µM; in the assay with T-47D breast, 5.77 µM.

In the case of `OC1CCC(C2C3CCCCC3C3CCCCC3C2C2CCC(O)CC2)CC1` (stereo unspecified), the TGI is 8.87 µM with BT-549 breast; 34.3 µM in the assay on MCF7 breast; 9.66 µM in the assay with MDA-MB-231 breast; 24.6 µM in the assay on MDA-MB-435; more than 100 µM with NCI/ADR-RES ovarian; more than 100 µM with PC-3 prostate. The molecule further had a TGI in the assay with T-47D breast of 11 µM.

Take `Cc1ccc(N2C(=O)C(Cl)=C(Nc3cccc(O)c3)C2=O)cc1Cl`: the GI50 is 6.16 µM with MCF7 breast; 16600 nM in the assay on MDA-MB-435; 21.6 µM with NCI/ADR-RES ovarian; 12.5 µM in the assay with PC-3 prostate; 49.6 µM in the assay with T-47D breast. Further, the TGI with MCF7 breast is 32 µM; in the assay with MDA-MB-435, 34 µM; in the assay on NCI/ADR-RES ovarian, 54.7 µM; in the assay on PC-3 prostate, 30.9 µM; in the assay on T-47D breast it was more than 100 µM.

As to `O=C(Nc1ccc(Br)cc1)c1cc(Br)cc(Br)c1O`, the GI50 in the assay with BT-549 breast is 3.08 µM; with MCF7 breast, 2.46 µM; with MDA-MB-231 breast it was 2.08 µM; with MDA-MB-435, 2270 nM; in the assay on NCI/ADR-RES ovarian, 2.94 µM; in the assay with PC-3 prostate it was 2.65 µM. In the assay with T-47D breast, the GI50 was 2.74 µM. Also, the TGI in the assay with BT-549 breast was 14.4 µM; in the assay on MCF7 breast, more than 100 µM; with MDA-MB-231 breast, 6.28 µM; with MDA-MB-435, 6.09 µM; in the assay on NCI/ADR-RES ovarian, 9.47 µM; in the assay on PC-3 prostate, 8.82 µM. Moreover, the TGI in the assay with T-47D breast was found to be 28.4 µM.

In the case of `C=C1C(O)C2C(=C(CC(C)C)C13CC3)C(=O)C(C)(C)C2OC` (stereo unspecified), the GI50 in the assay on BT-549 breast was more than 100 µM; in the assay with MCF7 breast, more than 100 µM; in the assay with MDA-MB-231 breast it was more than 100 µM; with MDA-MB-435, more than 100000 nM; in the assay on NCI/ADR-RES ovarian, more than 100 µM; in the assay with PC-3 prostate, more than 100 µM. In the assay on T-47D breast, the GI50 is more than 100 µM. The TGI in the assay on BT-549 breast, with MCF7 breast, in the assay with MDA-MB-231 breast, in the assay with MDA-MB-435, with NCI/ADR-RES ovarian and with PC-3 prostate was more than 100 µM in each case. The same molecule returned a TGI in the assay with T-47D breast of more than 100 µM.

As for `O=C(O)c1nnsc1COCc1ccccc1`, the TGI with BT-549 breast, in the assay on MCF7 breast, in the assay with MDA-MB-231 breast, in the assay on MDA-MB-435, in the assay with NCI/ADR-RES ovarian and in the assay with PC-3 prostate was more than 100 µM throughout. The molecule also had a TGI in the assay on T-47D breast of more than 100 µM.

`O=C1NC(=O)C(c2ccccc2Cl)=C1Nc1cccc(O)c1`: the GI50 was 9.62 µM in the assay with BT-549 breast; 3.99 µM in the assay on MCF7 breast; more than 25 µM in the assay with MDA-MB-231 breast; 3.2 µM in the assay on NCI/ADR-RES ovarian; 11.3 µM in the assay on PC-3 prostate; more than 10.4 µM in the assay on T-47D breast. In addition, the TGI in the assay with BT-549 breast is more than 25 µM; with MCF7 breast it was more than 20.7 µM; in the assay on MDA-MB-231 breast it was more than 25 µM; in the assay with NCI/ADR-RES ovarian, more than 25 µM; in the assay on PC-3 prostate, more than 25 µM; in the assay with T-47D breast it was more than 25 µM.

`N#C/C(=C(\O)C(=O)O)c1ccc(-c2cccc3ccccc23)cc1`: the TGI in the assay on BT-549 breast, with MCF7 breast, in the assay with MDA-MB-231 breast, in the assay on MDA-MB-435, in the assay on NCI/ADR-RES ovarian and in the assay with PC-3 prostate was more than 100 µM each time. This molecule also came in with a TGI with T-47D breast of more than 100 µM.
